Measurements from patent US20260224521A1, “BIOMOLECULE FOR TREATMENT OF CORNEAL PATHOLOGIES” (Board of Supervisors of Louisiana State University and …, priority 2019, published 2026).
Entries after “also recorded” stand apart in the source; their conditions may differ.

Legend:
mouse cornea [1] = assay: Corneal wound healing 20 h after injury (methylene blue stained wounded area); format: in vivo; conditions: for corneal wound healing: compared to PEDF+DHA (and RvD6) treatment
Protocol: Studies have shown that PEDF+DHA promotes corneal wound healing in rabbit (20, 21), and in normal and diabetic mice (24, 25) after experimental surgery. We validated the ability of RvD6s (either RvD6 or RvD6si) in stimulating corneal wound healing. The right mouse eyes were injured, and the animals were divided into four groups: vehicle, PEDF+DHA, RvD6, and RvD6si (FIG. 4).
(§1) Mice were anesthetized with a mix of ketamine (200 mg/kg) and xylazine (10 mg/kg) injected intraperitoneally, and one drop of proparacaine hydrochloride solution (0.5%) was applied to the right eye subjected to injury. As previously described (19, 29), the center of the cornea was demarcated with a 2 mm trephine, and the epithelium and the anterior stroma were gently removed under a surgical microscope using a corneal rust ring remover (Algerbrush II; Alger Equipment Co., Lago Vista, TX, USA). One drop of 0.3% of tobramycin ophthalmic solution (Henry Schein, Melville, NY, USA) was applied to the eye to prevent postoperative infection. The same investigator (J.H.) performed all surgeries. Afterward, 10 μl of PEDF (50 ng/ml) plus DHA (50 nM) or DHA-derived lipid mediators were applied topically, as explained in each experimental design.
Mice were euthanized 20 h after injury and treatment, and corneas were stained with 0.5% methylene blue for 20 sec and then washed with PBS for 2 min. Photographs were taken with a dissecting microscope (SMZ 1500; Nikon, Tokyo, Japan) through an attached digital camera (DXM 1200; Nikon). The images corresponding to the wounded area were quantified using Photoshop CC 2014 software (Adobe, San Jose, CA, USA).

mouse cornea [2] = assay: Corneal sensitivity measurement (Belmonte non-contact aesthesiometer); format: in vivo; conditions: for recovery of corneal sensitivity: compared to PEDF+DHA (and RvD6) treatment; for corneal sensitivity: vs vehicle
Protocol: Corneal sensitivity was evaluated at days 3, 6, 9 and 12 after corneal injury and treatment (FIG. 4). A new methodology to measure the sensation in mouse cornea was introduced using the Belmonte non-contact aesthesiometer. […] It is important to note that this range of normal corneal sensitivity is critical to evaluate corneal sensation since the Belmonte non-contact aesthesiometer working flow rate is from 20 to 200 ml/min. The range of normal corneal sensitivity from […] in the mouse was regarded as successful recovery after injury and treatment, and it was used to normalize the measurements.
as §1
The non-contact corneal aesthesiometer has been described as a more reliable method than the standard Cochet-Bonnet aesthesiometer to determine the corneal sensation threshold (54). Therefore, for corneal sensation measurement, the Belmonte non-contact corneal aesthesiometer (55) was used with some modification. Briefly, one researcher held the mouse and kept the air output needle at a distance of 3 mm from the cornea. Another researcher controlled the air flow rate. The measurements started at an air flow rate of 80 ml per minute and then increased gradually by ten units until the mouse started blinking. When the mouse blinked, the air flow rate was recorded as the final corneal sensitivity index.

corneal nerves = assay: Corneal nerve analysis (PGP9.5 and SP whole-mount nerve density); format: in vivo, mouse
Description: PEDF+DHA stimulates corneal nerve regeneration in injury animal models (20-25). It was important to confirm the biological activity of RvD6si as a lipid mediator underlying the action of PEDF+DHA. To validate this, mice were injured and treated (as described in FIG. 4). Isolated corneas were stained with PGP 9.5, a pan-neuronal marker, and with SP neuropeptide antibodies. The density of non-injured corneal nerves positive to PGP 9.5 and SP, respectively, was used to normalize the values (FIG. 5). Substance P is a main neuropeptide in mammalian corneas (26-28).
as §1
Twelve days after injury and treatment, mice were euthanized, and the eyes enucleated and fixed with Zamboni's fixative (American Master Tech Scientific, Lodi, CA, USA) for 45 min at room temperature. The corneas were then excised and fixed for an additional 15 min, followed by 3 washes with PBS. To block nonspecific binding, corneas were incubated with 10% normal goat serum plus 0.5% Triton X-100 in PBS for 1 h at room temperature. Afterward, corneas were incubated with the primary antibodies, rabbit monoclonal anti-PGP9.5 (1:500), (ab108986; Abcam, Cambridge, MA, USA), and rat monoclonal anti-substance-P (SP; 1:100) (sc-21715; Santa Cruz Biotechnology, Dallas, TX, USA) for 24 h at room temperature with constant shaking. After being washed with PBS, the corneas were incubated with the corresponding secondary antibodies goat anti-rabbit Alexa-Fluor 488 (1:1000) and goat anti-rat Alexa-Fluor 488 (1:1000) (Thermo Fisher Scientific, Waltham, MA, USA) for 24 h at 4° C. Four radial cuts were performed on each cornea that was flatly mounted on a slide with the endothelium side up and examined with a fluorescent microscope (Deconvolution microscope DP80; Olympus, Tokyo, Japan). The images were merged together to build the entire view of the corneal nerve network. The corneal nerve density was measured using Photoshop CC 2014 (Adobe) as previously described (26, 29).

[3] = test system: trigeminal ganglion (TG) gene expression; assay: Trigeminal ganglion RNA sequencing after corneal injury and treatment; format: in vivo, mouse; conditions: RNA-seq, 12 days after corneal injury and topical treatment, vs vehicle
Protocol: Because corneal sensory nerves originate in TG neurons, we wanted to validate whether corneal injury could be sensed in the TG and t, in turn, would elicit a gene expression response. Thus, TG were harvested 12 days after injury and treatment with RvD6si or RvD6 or vehicle treatment used as control (FIG. 4) and then RNA-seq analysis was performed. […] The box plots depict two activated genes by RvD6si in this class: C9orf72 and Gpm6a (FIG. 6). We also detected specific genes related to neuropeptides and ion channel receptors in the cornea that are stimulated by the addition of PEDF+DHA (19, 21, 24) (FIG. 6D). The RNA-seq established that RvD6 or RvD6si reduced gene expression of two major neuropeptides, tachykinin precursor 1 (Tac1) that encodes Substance P (SP) and calcitonin-related polypeptide beta (Calcb). It is important to note that these neuropeptides, especially Calcb, are major pain-induced mediators in migraine and other primary headaches (30).
TG corresponding to the injury eye side (n=5) were harvested and kept in RNAlater solution (Thermo Fisher Scientific) until homogenized on ice using a Dounce homogenizer. Total mRNA was extracted using an RNeasy mini kit (Qiagen, Germantown, MD, USA) as described by the manufacturer. Purity and concentration of RNA were determined with a NanoDrop ND-1000 spectrophotometer (Thermo Fisher Scientific), and the samples were stored at −80° C. until used. RNA sequencing was performed using the adapted Smart-seq2 protocol (56). Briefly, one ng of total RNA was reverse transcribed with the Oligo-dT30VN and template-switching oligo (TSO) primers. The total cDNAs were amplified using ISPCR primer, and the library was made using the Nextera XT DNA library preparation kit (Illumina, San Diego, CA, USA). The libraries were pooled using the same molarity and sequenced using the NextSeq 500/550 High Output Kit v2 (75 cycles, Illumina). After demultiplexing, RNA-seq data were aligned to the GENCODE GRCm38 mouse primary genome assembly (Release M22, gencodegenes.org/mouse/) using the RSubread package v1.34.6 for R v3.6.1 (57). The outputted BAM files for sequencing data alignment were counted using featureCounts function (Subread v1.6.5 in Ubuntu LTS 16.4 operating system) (58). Next, the raw count data were subjected to differential gene expression analysis using DESeq2 package for R (59). The adjusted p-values were regarded as the false discover rate (FDR).

mouse cornea [4] = assay: Mouse corneal epithelium removal inside 2 mm diameter central area; format: in vivo; conditions: topical eye drops, 3× daily for 12 days; 2020 (40)
Protocol: as §1

Q: For `CC/C=C\C[C@@H](O)/C=C/C=C\C/C=C\C/C=C\C=C\[C@H](O)CCC(=O)O` (single isomer, unassigned) [RvD6si], which “corneal wound healing (wound closure)” value (mouse cornea [1]; 20 h after injury and topical treatment, compared to vehicle) is on record?
A: greatest increase

Q: And the corneal wound healing (mouse cornea [1])?
A: more potently

Q: What about the corneal wound healing (mouse cornea [1]; listed as RvD6i) of the same compound?
A: accelerated

Q: And the “recovery of corneal sensitivity” value (mouse cornea [2])?
A: more potently

Q: What about the “recovery of corneal sensitivity” value (mouse cornea [2]; listed as RvD6i) of the same compound?
A: accelerated; also recorded: sooner

Q: What about the corneal sensitivity (mouse cornea [2]; day 3 after injury and treatment) of the same compound?
A: faster recovery; also recorded: significantly higher

Q: What about the corneal sensitivity (mouse cornea [2]; day 6 after injury and treatment) of the same compound?
A: faster recovery; also recorded: significantly higher

Q: What about the corneal sensitivity (mouse cornea [2]; day 9 after injury and treatment) of the same compound?
A: significantly higher

Q: What about the “total corneal nerve density, differences between RvD6si, RvD6, and PEDF+DHA” value (corneal nerves; 12 days after injury and treatment) of the same compound?
A: no significant differences

Q: What about the “total corneal nerve density (PGP 9.5)” value (corneal nerves; 12 days after injury and treatment, % of the normal (uninjured) cornea) of the same compound?
A: 62.6±4.2%

Q: What about the “density of SP-positive nerves” value (corneal nerves; 12 days after injury, compared to the vehicle-treated group) of the same compound?
A: higher

Q: What about the “C9orf72 gene expression in TG” value [3] of the same compound?
A: activated; also recorded: strong activation

Q: What about the “Calcb gene expression in TG” value [3] of the same compound?
A: reduced; also recorded: decreased

Q: And the “Gpm6a gene expression in TG” value [3]?
A: activated; also recorded: strong activation

Q: And the “Nrp1 gene expression in TG” value [3]?
A: selectively enhanced; also recorded: selective increase

Q: What about the “Rictor gene expression in TG” value [3] of the same compound?
A: strong induction; also recorded: potently and selectively induces

Q: And the “Tac1 gene expression in TG” value [3]?
A: reduced; also recorded: decreased

Q: What about the “Trpm8 gene expression in TG” value [3] of the same compound?
A: selectively enhanced; also recorded: increased expression

Q: What about the “C9orf72 gene expression in TG” value ([3]; listed as RvD6i) of the same compound?
A: induces

Q: What about the “Calcb gene expression in TG” value ([3]; listed as RvD6i) of the same compound?
A: decreased; also recorded: down-regulated

Q: What about the “Gpm6a gene expression in TG” value ([3]; listed as RvD6i) of the same compound?
A: induces

Q: And the “Rictor gene expression in TG” value ([3]; listed as RvD6i)?
A: strong inducer; also recorded: up-regulated

Q: And the “Tac1 gene expression in TG” value ([3]; listed as RvD6i)?
A: decreased; also recorded: down-regulated

Q: And the “Trpm8 gene expression in TG” value ([3]; listed as RvD6i)?
A: increased; also recorded: up-regulated

Q: What about the “corneal wound healing, sensitivity and nerve regeneration” value (mouse cornea [4]) of the same compound?
A: Increased corneal wound healing, sensitivity
